“And” between values parts separate entries of the source, which are not always exact repeats. Equal values may be shown once. “Also recorded” adds a separate entry of the source.
Experiments:
[1] = system: ABCA1 mRNA in THP-1 cells; test: ABCA1 mRNA by real-time PCR in THP-1 cells; format: cell-based, human; details: for effect on ABCA1 message: THP-1 monocytes/macrophages
[2] = system: cholesterol 27-OHase mRNA in THP-1 cells; test: 27-OHase mRNA by real-time PCR (QRT-PCR) in THP-1 monocytes/macrophages; details: for effect on 27-OHase message: THP-1 monocytes/macrophages; for increase in 27-OHase message: THP-1 cells; for 27-OHase mRNA, % of control: THP-1 monocytes, MTX 5 μM, 18 hr, untreated = 100%, n=3
Method: THP-1 cells: When THP-1 cells had reached 10^6 cells/ml, media was aspirated and cells were rinsed twice with Dulbecco's Phosphate Buffered Saline (DPBS) without calcium and magnesium. The monocytes were then incubated for 24-48 hours in six well plates, (37° C., 5% CO2) under the following conditions: a) RPMI control; b) RPMI containing 5 mM MTX; c) RPMI containing NS-398 (50 μM); d) RPMI containing NS-398 (50 μM) and MTX (increasing doses of 0.1 μM, 0.5 μM and 5 μM); e) RPMI containing IFN-γ (500 U/ml); f) RPMI containing IFN-γ (500 U/ml) and 5 μM MTX.
TUP-1 macrophages were exposed to the following conditions: a) RPMI control; b) RPMI containing ZM-241385 (10 μM); c) RPMI containing MTX (5 μM); d) RPMI containing IFN-γ (500 U/ml); e) RPMI containing IFN-γ (500 U/ml) and 5 μM MTX; f) RPMI containing ZM-241385 (10 μM) and MTX (5 μM); g) RPMI containing IFN-γ (500 U/ml), ZM-241385 (10 μM) and MTX (5 μM); h) RPMI containing NS-398 (50 μM), ZM-241385 (10 μM) and MTX (5 μM).
Other experimental conditions of TUP-1 and PBMC included the following parameters and conditions: when THP-1 monocytes had reached 10^6 cells/ml, media was aspirated and cells were rinsed twice with Dulbecco's Phosphate Buffered Saline (DPBS) without calcium and magnesium.
RNA isolation and quantitation: RNA was isolated using 1 ml Trizol reagent per 10^6 cells and dissolved in nuclease-free water. The quantity of total RNA from each condition was measured by absorption at 260 and 280 wavelengths using quartz cuvettes by ultraviolet spectrophotometry (Hitachi U2010 spectrophotometer).
RT-PCR analysis of 27-OHase: 27-OHase and ABCA1 mRNA were quantitated by real-time PCR. cDNA was copied from 5 μg of total RNA using M-MLV reverse transcriptase primed with oligo dT. Equal amounts of cDNA were taken from each RT reaction mixture for PCR amplification using cholesterol 27-OHase-specific primers or ABCA1 specific primers as well as glyceraldehyde-3-phosphate dehydrogenase (GAPDH) control primers. The cholesterol 27-OHase-specific primers span a 311 base-pair sequence encompassing nucleotides 491-802 of the human cholesterol 27-OHase cDNA (24). ABCA1 primers yield a 234 BP amplified fragment. Real-time PCR analysis was performed using the SYBR Green PCR Reagents Kit (Applied Biosystems) with a Stratagene MX3005P QPCR System.
PCR was performed using techniques as follows. Each PCR reaction contained 2.5 μl of the 10 × fluorescent green buffer, 3 μl of 25 mM MgCl2, 2 μl dNTP mix (2500 μM dCTP, 2500 μM dGTP, 2500 μM dATP, and 5000 μM dUTP), 0.15 μl polymerase (5 U/μl; AmpliTaq Gold; Applied Biosystems), 0.25 μl uracil-N-glycosylase (1 U/μlUNG; AmpErase; Applied Biosystems), 0.5 μl of the forward and reverse primers (10 μM concentration), 4 μl cDNA, and water to a final volume of 25 μl. The thermal cycling parameters were as follows: 5 minutes at 95° C. to activate the polymerase (AmpliTaq Gold; Applied Biosystems), followed by 45 cycles of 30 seconds at 95° C. and 45 seconds at 58° C. then 45 seconds at 72° C. Each reaction was done in triplicate.
The amounts of PCR products were estimated, using software provided by the manufacturer (Stratagene). After completion of PCR cycles, the reactions were heat denatured over a 35° C. temperature gradient from 60° C. to 95° C. To correct for differences in cDNA load among samples, the target PCRs were normalized to a reference PCR involving the endogenous housekeeping genes glyceraldehyde-3-phosphate dehydrogenase (GAPDH) and β-actin. Nontemplate controls were included for each primer pair to check for significant levels of any contaminants. Fluorescence emission spectra were monitored and analyzed.

[3] = system: 27-OHase mRNA in Balb/C murine macrophages; test: 27-OHase mRNA in Balb/C murine macrophages; format: cell-based; details: 10^−5M, 3 hours, 37° C., n=3 per group
From the text: A number of different highly receptor-specific agonists and antagonists of adenosine receptors have been developed that either mimic or block the effects of adenosine. […] Based on the upregulation of 27-OHase in murine cells upon exposure to CGS-21680, the same effect was established in human monocytoid cells. In THP-1 cells, ABCA1 mRNA increased in concert with 27-OHase.

[4] = system: cholesterol 27-OHase protein in THP-1 cells; test: 27-OHase protein by Western immunoblot in THP-1 monocytes; format: cell-based, human; details: NS-398 50 μM
Method: Western Blots: Total cell lysates were prepared for Western immunoblotting using RIPA lysis buffer (98% PBS, 1% Igepal CA-630, 0.5% sodium deoxycholate, 0.1% sodium dodecyl sulfate [SDS]). 100 μl of RIPA lysis buffer and 10 μl of protease inhibitor cocktail (Sigma) were added to the cell pellet from each condition and incubated on ice for 35 minutes with vortexing every 5 min. Supernatants were collected after centrifuging at 10,000 g at 4° C. for 10 minutes using an Eppendorf 5415C centrifuge. The quantity of protein in each supernatant was measured by absorption at 560 nm using a Hitachi U2010 spectrophotometer.
Total cell lysate was used for Western blots. Protein samples ([…]) were boiled for 5 minutes, loaded onto a 10% polyacrylamide gel, electrophoresed for 1.5 hr at 100V then transferred to a nitrocellulose membrane in a semi-dry transblot apparatus for 1 hour at 100V. […] The five washes in TTBS were repeated, then the immunoreactive protein was detected using ECL western blotting detection reagent (Amersham Biosciences, Cat No RPN2106) and film development in SRX-101A (Konica Minolta).
As a control, on the same transferred membrane, beta-actin was detected using mouse anti-beta-actin (diluted in 1:1000, from abCam, product Code: ab6276) and ECL sheep anti-mouse-IgG Horseradish peroxidase-linked species-specific whole antibody (diluted in 1:2000, from Amersham Biosciences, product Code NA931) and all other similar steps as above.
Total cell lysate was isolated for Western immunoblotting using RIPA lysis buffer (98% PBS, 1% Igepal CA-630, 0.5% sodium deoxycholate, 0.1% SDS). […] The quantity of protein in each supernatant was measured by absorption at 560 nm using a Hitachi U2010 spectrophotometer.
Cultured TUP-1 monocytic cells were untreated or exposed to NS-398 (50 μM, 18 hr) then untreated or exposed to increasing doses of MTX for 24 hr. Total cell protein was isolated and 27-OHase detected with specific rabbit polyclonal anti-human 27-OHase antibody. […]

[5] = rats, IV dose 0.3 mg/kg; cited from earlier work
[6] = system: ABCA1 protein in THP-1 cells; test: ABCA1 protein by Western blot in THP-1 cells; format: cell-based, human; details: 50 μM
Method: ABCA1 Detection: For ABCA1 detection, macrophage cell lysates were electrophoresed for 1.5 hr at 100V (10% polyacrylamide gel), then transferred to a nitrocellulose membrane. The membrane was blocked for 4 hours at 4° C. in blocking solution then incubated overnight at 4° C. in a 1:200 dilution of rabbit anti-ABCA1antibody (Santa Cruz Biotechnology). The following day, the membrane was washed 5 times in TTBS for 5 mins per wash then incubated at room temperature in a 1:5000 dilution of ECL donkey anti-rabbit IgG Horseradish peroxidase-linked species-specific whole antibody. Development proceeded as described above for the 27-OHase antibody.
(§1) Media was aspirated and cells were rinsed 3 times with Dulbecco's Phosphate Buffered Saline (PBS) without Ca++ and Mg++. […] THP-1 macrophages were cholesterol-loaded with 50 μg/ml acetylated LDL and incubated an additional 48 h prior to oil red O staining.
Western Blots: Total cell lysate protein samples (10 μg/lane) were boiled for 5 min, loaded onto a 7.5% polyacrylamide gel, electrophoresed for 1.5 hr at 100V then transferred to a nitrocellulose membrane in a semi-dry transblot apparatus for 1 hr at 100V. For ABCA1 detection, the primary antibody was a rabbit anti-human ABCA1 antibody (1:2000 dilution, Santa Cruz Biotechnology). […]

THP-1 macrophages = test: Foam cell formation in acetylated LDL-loaded THP-1 macrophages (oil red O); format: cell-based, human
Method: THP-1 human monocytes (1×10^6 cells/ml) in 12 well plates were treated with phorbol dibutyrate, 300 nM (Sigma) for 48 hr at 37° C. to facilitate differentiation into macrophages. The differentiated macrophages were washed three times with PBS, then incubated alone or in the presence of 10 μM NS-398 (37° C., 5% CO2, 18 hours). Cells were cholesterol-loaded with acetylated LDL (50 μg/ml) and further incubated in RPMI (37° C., 5% CO2) for 48 hours. Studies were performed in triplicate.
Immediately following incubation, media was aspirated and cells were fixed in the same 12 well plates used for incubation, with 4% paraformaldehyde in water, for 2-4 minutes. Cells were stained with 0.2% Oil-Red-O in methanol for 1-3 min. Cells were observed via light microscope (Axiovert 25-Zeiss) with 100× magnification and then photographed using a Kodak DC 290 Zoom Digital Camera. The number of foam cells formed in each condition were calculated manually and presented as percentage foam cell formation.
as §1
Following incubation, media was aspirated and cells were fixed with 4% paraformaldehyde in water, for 2-4 min. Cells were stained with 0.4% trypan blue for 1-3 min, washed in PBS, and then stained with 0.2% oil-Red-O in methanol for 1-3 min. Observation and photography of cells was performed respectively via light microscope (NIKON Eclipse TE300) with 40× magnification and SONY Progressive 3CCD color video camera. The number of foam cells formed in each condition were calculated manually and presented as percentage foam cell formation.

[7] = system: 27-OHase in peripheral blood monocytes; test: 27-OHase in healthy monocytes isolated from peripheral blood (PBMC); format: cell-based, human; details: MTX 5 μM, 18 h
Method: PBMC (peripheral blood mononuclear cell) isolation: Blood from healthy donors was collected in EDTA treated tubes, pooled and kept at 4° C. The pooled blood was adjusted to a density of 1.120 g/ml with the addition of OptiPrep Density Gradient Media (Sigma) according to the manufacturer's instructions. The blood was then overlaid with a 1.074 g/ml density solution composed of complete RPMI containing 10% FBS and OptiPrep media. A layer of complete RPMI containing 10% FBS was then overlaid on top to prevent monocytes from sticking to the plastic tube. The blood was centrifuged at 750 g for 30 minutes at 4° C. After centrifugation, the monocyte interphase was collected from between the 1.074 g/ml and RPMI layer. The collected cells were diluted with 2 volumes of complete RPMI and harvested by centrifugation. The pellet was re-suspended in complete RPMI. The monocytes were counted by hemocytometer and plated at a density of 2×10^6 cells/well in a 6-well plate.
PBMC: PBMC were incubated for 18 h in RPMI with 10% FBS with and without the addition of MTX at a concentration of 5 μM. Cells were collected and RNA isolated.

[8] = vs NS-398 alone, NS-398 50 μM, CGS-21680 10 μM, 18 hrs
[9] = acetylated LDL-treated THP-1 macrophages, MTX series, control 39.3±5.0%, n=3
[10] = THP-1 macrophages, acetylated LDL

COC(=O)N1CCC(CC#Cc2nc(N)c3ncn([C@@H]4O[C@H](C(=O)NC5CC5)[C@@H](O)[C@H]4O)c3n2)CC1 [ATL313]
effect on ABCA1 message [1]: increases 27-OHase as shown in FIG. 3b and ABCA1 mRNA and protein
effect on 27-OHase message [2]: increases 27-OHase message

CCNC(=O)[C@H]1O[C@@H](n2cnc3c(N)nc(NCCc4ccc(CCC(=O)O)cc4)nc32)[C@H](O)[C@@H]1O [CGS-21680, 2-(4-(2-carboxyethyl)phenethylamino)-5′-N-ethylcarboxamidoadenosine]
increase in 27-OHase mRNA expression [3]: 47±6.2%
effect on 27-OHase protein [4]: this decrease is reversed by the addition of the adenosine A2A agonist CGS-21680
increase in ABCA1 mRNA on addition of CGS-21680 to NS-398-treated THP-1 cells [1, 8]: 141%
terminal half-life [5]: 19 ± 4 min
increase in 27-OHase message [2]: ≤ 1.8 fold
increase in 27-OHase mRNA on addition of CGS-21680 to NS-398-treated THP-1 cells [2, 8]: 184%

Cc1ccc(-c2cc(C(F)(F)F)nn2-c2ccc(S(N)(=O)=O)cc2)cc1 [Celecoxib, celecoxib]
decrease in ABCA1 protein expression vs. control [6]: 25.6%±1.3
foam cells (THP-1 macrophages; 50 μM, acetylated LDL loading, control 39.1%±5.4): 95.0%±0.7

Nc1nc(OCCc2ccc(Cl)cc2)nc2c1ncn2[C@@H]1O[C@H](CO)[C@@H](O)[C@H]1O [MRE-0094]
increase in ABCA1 mRNA expression ([1]; THP-1 cells): 1.8 fold
increase in 27-OHase message [2]: 2 fold

CN(Cc1cnc2nc(N)nc(N)c2n1)c1ccc(C(=O)N[C@@H](CCC(=O)O)C(=O)O)cc1 [MTX, methotrexate]
effect on 27-OHase protein [4]: corrected with increasing concentrations of MTX
effect on ABCA1 message [1]: effective in blocking COX-2 inhibitor-mediated downregulation of ABCA1 message
effect on 27-OHase in peripheral blood monocytes [7]: increases 27-OHase
effect on 27-OHase message [2]: completely blocked NS-398-induced downregulation of 27-OHase message
27-OHase mRNA, % of control ([2]; NS-398 50 μM, CGS-21680 10 μM): 113.9±6.4%

CS(=O)(=O)Nc1ccc([N+](=O)[O-])cc1OC1CCCCC1 [NS-398]
effect on 27-OHase protein [4]: 27-OHase protein expression decreased
ABCA1 mRNA, % of control ([1]; THP-1 cells, NS-398 50 μM, CGS-21680 10 μM, 18 hrs, untreated = 100%, n=3): 71.1±3.9% and 60.49±4.42%
effect on 27-OHase message [2]: dramatically reduced cholesterol 27-OHase message
27-OHase mRNA, % of control ([2]; NS-398 50 μM, CGS-21680 10 μM): 71.1±4.3% and 58.9±2.3% and 62.4±2.2%
foam cell transformation (THP-1 macrophages; THP-1 macrophages, NS-398 (10 μM, 18 hours), acetylated LDL, control 20.1±3.4%): 42.7±6.6%
foam cells (THP-1 macrophages; [9]): 72.7±4.9%

Nc1nc(NCCc2ccc(O)cc2)nc2nc(-c3ccco3)nn12 [ZM-241385]
reversal by A2A antagonist of agonist-induced rise in 27-OHase (and ABCA1) message ([2]; THP-1, ZM-241385 with ATL313 or MRE-0094): this is reversed by ZM-241385; also recorded: reversed the effect of MRE-0094 on both these messages
effect on foam cell formation (THP-1 macrophages; [10]): prevents MTX from decreasing NS-398-induced foam cell formation
foam cells after preincubation with A2A antagonist prior to MTX treatment (THP-1 macrophages; acetylated LDL-treated THP-1 macrophages, ZM-241385 then MTX): 62.1±1.5%

IFN-γ: recombinant human IFN-γ, atherosclerosis-promoting cytokine (R&D Systems)
effect on 27-OHase message [2]: decreasing 27-OHase and ABCA1 message and protein expression
effect on foam cell formation (THP-1 macrophages; [10]): formed foam cells more rapidly and in greater proportion than untreated control cells
foam cells (THP-1 macrophages; [9]): 71.0±5.0%

From US20090275529A1, “METHOD FOR IMPROVING CARDIOVASCULAR RISK PROFILE OF COX INHIBITORS” (priority 2008, published 2009)
